Patent US7858588B2, “Immunostimulatory oligodeoxynucleic molecules” (Intercell AG, priority 2001, dated 2010)
“Also recorded” adds a separate entry of the source.

Tests used:
Type in all cases: in vivo, Mice C57BI/6
[1] = tested on: melanoma-derived peptide TRP-2181-188 (TRP-2181-188-specific T cells); test: IFN-γ ELISPOT on draining lymph node cells after footpad injection of TRP-2181-188 peptide with ODN; settings: for TRP-2181-188-specific immune response (number of IFN-γ-producing cells/1×10^6 lymph node cells) with co-injection of poly-L-arginine: ODN 5 nmol/mouse + TRP-2181-188 100 μg/mouse + pR60 100 μg/mouse; for TRP-2181-188-specific immune response (number of IFN-γ-producing cells/1×10^6 lymph node cells) with co-injection of poly-L-arginine / TRP-2181-188-specific immune response (number of IFN-γ-producing cells/1×10^6 lymph node cells): hind footpads; for TRP-2181-188-specific immune response (number of IFN-γ-producing cells/1×10^6 lymph node cells) / TRP-2181-188-specific immune response (IFN-γ-producing cells), FIG. 7-9: ODN 5 nmol/mouse + TRP-2181-188 100 μg/mouse; for TRP-2181-188-specific immune response (number of IFN-γ-producing cells/1×10^6 lymph node cells): no poly-L-arginine, lymph nodes 4 days later; for TRP-2181-188-specific immune response (IFN-γ-producing cells), FIG. 7-9: groups with and without pR 60, 4 days
Experimental: (§1) Animals were sacrificed 4 days after injection and popliteal lymph nodes were harvested. Lymph nodes were passed through a 70 μm cell strainer and washed twice with DMEM medium (GIBCO BRL) containing 5% fetal calf serum (FCS, SIGMA chemicals). Cells were adjusted to the appropriate cell number in DMEM/5%/FCS. An IFN-γ ELISPOT assay was carried out in triplicates as described (Miyahira et al., 1995). This method is a widely used procedure allowing the quantification of antigen-specific T cells. Lymphocytes were stimulated ex vivo in triplicates with medium (background-control), TRP-2181-188-peptide, an irrelevant peptide OVA257-264, pR 60, U-ODN13 and Concanavalin A (Con A). Spots representing single IFN-γ producing T cells were counted and the number of background spots was substracted from all samples. The high number of spots detected after the stimulation with Con A (data not shown) indicates a good condition of the used lymphocytes. For each experimental group of mice the number of IFN-γ-producing cells/1×10^6 cells are illustrated in FIG. 1, the standard deviation of ex vivo-stimulated triplicates is given.
as §1, with “U-ODN15” for “U-ODN13”, “5,” for “1,”
as §1, with “U-ODN 16, ODN 20” for “pR 60, U-ODN13”, “6,” for “1,”
Animals were sacrificed 4 days after injection and popliteal lymph nodes were harvested. Lymph nodes were passed through a 70 μm cell strainer and washed twice with DMEM medium (GIBCO BRL) containing 5% fetal calf serum (FCS, SIGMA chemicals). Cells were adjusted to the appropriate cell number in DMEM/5%/FCS. An IFN-γ ELISPOT assay was carried out in triplicates as described (Miyahira et al., 1995). This method is a widely used procedure allowing the quantification of antigen-specific T cells. […]

[2] = tested on: ovalbumin-derived peptide OVA257-264; test: IFN-γ ELISPOT on draining lymph node cells after footpad injection of OVA257-264 peptide with ODN; settings: ODN 5 nmol/mouse + OVA257-264 300 μg/mouse, no pR60, 4 days
Experimental: as §1, with “duplicates” for “triplicates”, “OVA257-264 peptide,” for “TRP-2181-188-peptide,”, “TRP-2181-188,” for “OVA257-264,”, “3,” for “1,”

[3] = tested on: mouse mastocytoma-derived peptide P1A35-43; test: IFN-γ ELISPOT on draining lymph node cells after footpad injection of P1A35-43 peptide with ODN
Experimental: as §1, with “P1A35-43 peptide,” for “TRP-2181-188-peptide,”, “CSP (SYVPSAEQI, SEQ ID NO:18),” for “OVA257-264,”, “U-ODN 13” for “U-ODN13”, “spots/1×10^6” for “IFN-γ-producing cells/1×10^6”, “4,” for “1,”

With hhh wdu dhh h [U-ODN 16] the “TRP-2181-188-specific immune response (IFN-γ-producing cells), 10mer cocktail” value ([1]; ODN 10 nmol/mouse + TRP-2181-188 100 μg/mouse, no pR60, compared to peptide alone or with ODN 20, 4 days) was “strong immune response”.

nhh hhh wdu dhh hhh hhh wn [U-ODN 15] was tested, and the “TRP-2181-188-specific immune response (IFN-γ-producing cells) at 10 times less ODN” value ([1]; ODN 0.5 nmol/mouse + TRP-2181-188 100 μg/mouse, 4 days) was “strong immune response could be induced”, the “TRP-2181-188-specific immune response (number of IFN-γ-producing cells/1×10^6 lymph node cells) with co-injection of poly-L-arginine” value ([1]; 4 days) was “does not influence this strong response; also recorded: strong immune response” and the “TRP-2181-188-specific immune response (number of IFN-γ-producing cells/1×10^6 lymph node cells)” value [1] was “strongly enhances; also recorded: strong immune response”.

“tcc atg acu ttc ctg atg ct [U-ODN 13] (TCCATGACUTTCCTGATGCT; chemistry not given here)” was tested, and the “TRP-2181-188-specific immune response (number of IFN-γ-producing cells/1×10^6 lymph node cells) with co-injection of poly-L-arginine” value ([1]; 4 days) was “strong immune response; also recorded: does not influence this strong response”, the “TRP-2181-188-specific immune response (number of IFN-γ-producing cells/1×10^6 lymph node cells)” value [1] was “strong immune response; also recorded: strongly enhances” and the “TRP-2181-188-specific T cells / immune response compared to CpG-ODN 1668” value ([1]; ODN 5 nmol/mouse vs CpG 1668 5 nmol/mouse, each with TRP-2181-188, 4 days) was “higher number”. For the same substance, the “OVA257-264-specific immune response (IFN-γ-producing cells/1×10^6 lymph node cells)” value [2] was “induces an immune response”, the “P1A35-43-specific immune response with co-injection of poly-L-arginine” value ([3]; ODN 5 nmol/mouse + P1A35-43 100 μg/mouse + pR60 100 μg/mouse, 4 days) was “further enhanced” and the “P1A35-43-specific immune response (IFN-γ-producing cells/1×10^6 lymph node cells)” value ([3]; ODN 5 nmol/mouse + P1A35-43 100 μg/mouse, no pR60, 4 days) was “strong immune response”.

For “tcc atg acu ttc ctg atg ct [U-ODN 13b] (DNA TCCATGACUTTCCTGCTGATGCT; DNA, backbone and methylation of C not given here; further chemistry not fully specified)”, the “TRP-2181-188-specific immune response (number of IFN-γ-producing cells/1×10^6 lymph node cells) with co-injection of poly-L-arginine” value ([1]; 4 days) was “only after co-injection of poly-L-arginine a strong peptide-specific immune response is induced; also recorded: only upon co-injection of poly-L-arginine a high immune response was induced”.

With “uau aua uau aua uau aua uau aua ua (UAUAUAUAUAUAUAUAUAUAUAUAUA; DNA, all phosphorothioate, T or U not given here) [U-ODN 21]” the “TRP-2181-188-specific immune response (IFN-γ-producing cells), FIG. 7-9” value (shortened to “TRP-2181-188-specific immune response … FIG. 7-9”) [1] was “generation of specific immune responses”.

With “uiu iui uiu iui uiu iui uiu iui ug [U-ODN 22]” the “TRP-2181-188-specific immune response … FIG. 7-9” value [1] was “generation of specific immune responses”.

For “uuu uuu uuu uuu uuu uuu uuu uuu ut (UUUUUUUUUUUUUUUUUUUUUUUUUT; DNA, all phosphorothioate, T or U not given here) [U-ODN 24]”, the “TRP-2181-188-specific immune response … FIG. 7-9” value [1] was “generation of specific immune responses”.
